This note sets out measurements from patent US20250346585A1 (Alexion Pharmaceuticals, Inc., priority 2022, published 2025).

Chain of Human complement C1s enzyme (P09871 438-688 limits assumed): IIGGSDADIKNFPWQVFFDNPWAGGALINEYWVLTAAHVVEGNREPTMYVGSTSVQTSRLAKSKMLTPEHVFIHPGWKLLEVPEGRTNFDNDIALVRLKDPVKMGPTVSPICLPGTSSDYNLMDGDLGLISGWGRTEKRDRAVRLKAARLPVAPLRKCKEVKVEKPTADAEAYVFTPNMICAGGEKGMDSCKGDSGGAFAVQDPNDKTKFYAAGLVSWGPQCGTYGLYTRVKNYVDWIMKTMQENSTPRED
Chain of Human complement C1s enzyme (P09871 16-437 partner limits assumed): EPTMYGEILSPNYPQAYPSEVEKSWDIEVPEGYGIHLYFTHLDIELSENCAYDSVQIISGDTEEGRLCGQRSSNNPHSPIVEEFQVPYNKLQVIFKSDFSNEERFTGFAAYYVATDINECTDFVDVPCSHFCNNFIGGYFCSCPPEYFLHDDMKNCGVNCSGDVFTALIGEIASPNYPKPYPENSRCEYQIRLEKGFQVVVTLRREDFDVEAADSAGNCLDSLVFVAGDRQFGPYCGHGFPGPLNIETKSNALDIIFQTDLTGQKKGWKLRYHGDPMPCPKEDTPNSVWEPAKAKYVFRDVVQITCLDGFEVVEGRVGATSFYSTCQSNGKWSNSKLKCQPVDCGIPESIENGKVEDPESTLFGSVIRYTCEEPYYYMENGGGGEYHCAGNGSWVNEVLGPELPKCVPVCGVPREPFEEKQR

This experiment has as its target Human complement C1s enzyme (Homo sapiens (Human), UniProt P09871). Kind of experiment: Human C1s enzyme assay. Format: biochemical. As to conditions: Human complement C1s enzyme 1.16 nM, substrate Z-L-Lys-SBzl 100 μM, assay of Example 3; read-out: IC50 (Stars). The procedure, abridged:
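IC50 derived by nonlinear regression of rate versus concentration, with rate taken from A405 kinetics (30 s intervals, 30 min) after adding 100 μM each Z-L-Lys-SBzl and DTNB. C1s from human serum, 1.16 nM, exposed to compound for 5 min at RT beforehand; buffer 50 mM Tris, 1 M NaCl, pH 7.5.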
One may read the IC50 as the concentration needed to halve the response being measured. On to `CCCCCCOC(=O)/N=C(/N)c1csc([C@@H](C)NC(=O)[C@@H]2C[C@](F)(COC)CN2C(=O)CNC(=O)c2ccc3c(c2)-c2ccccc2C3(F)F)c1` [Compound 249, hexyl ((E)-amino(5-((R)-1-((2S,4R)-1-((9,9-difluoro-9H-fluorene-3-carbonyl)glycyl)-4-fluoro-4-(methoxymethyl)pyrrolidine-2-carboxamido)ethyl)thiophen-3-yl)methylene)carbamate], for which the IC50 was less than 100 nM.
Under `COC(=O)/N=C(/N)c1csc([C@@H](C)NC(=O)[C@@H]2C[C@](F)(CF)CN2C(=O)CNC(=O)c2ccc3c(c2)-c2ccccc2C3(F)F)c1` [Compound 250, methyl ((E)-amino(5-((R)-1-((2S,4R)-1-((9,9-difluoro-9H-fluorene-3-carbonyl)glycyl)-4-fluoro-4-(fluoromethyl)pyrrolidine-2-carboxamido)ethyl)thiophen-3-yl)methylene)carbamate] stands less than 100 nM.
For `N=C(N)c1csc(CCNC(=O)[C@@H]2CC3(CN2C(=O)CNC(=O)c2ccc4c(c2)-c2ccccc2C4(F)F)OCCO3)c1` [Compound 251, (S)—N-(2-(4-carbamimidoylthiophen-2-yl)ethyl)-7-((9,9-difluoro-9H-fluorene-3-carbonyl)glycyl)-1,4-dioxa-7-azaspiro[4.4]nonane-8-carboxamide] the value was less than 100 nM; for `C[C@@H](NC(=O)[C@@H]1C[C@@H]([S@@](C)(=N)=O)CN1C(=O)CNC(=O)c1ccc2c(c1)-c1ccccc1C2(F)F)c1cc(C(=N)N)cs1` [Compound 252, (2S,4R)—N—((R)-1-(4-carbamimidoylthiophen-2-yl)ethyl)-1-((9,9-difluoro-9H-fluorene-3-carbonyl)glycyl)-4-((S)—S-methylsulfonimidoyl)pyrrolidine-2-carboxamide], less than 100 nM; for `CCCCCCOC(=O)/N=C(/N)c1csc([C@@H](C)NC(=O)[C@@H]2C[C@](F)(CF)CN2C(=O)CNC(=O)c2ccc3c(c2)-c2ccccc2C3(F)F)c1` [Compound 253, hexyl ((E)-amino(5-((R)-1-((2S,4R)-1-((9,9-difluoro-9H-fluorene-3-carbonyl)glycyl)-4-fluoro-4-(fluoromethyl)pyrrolidine-2-carboxamido)ethyl)thiophen-3-yl)methylene)carbamate], less than 100 nM.
Under `C[C@@H](NC(=O)[C@@H]1CC2(CN1C(=O)CNC(=O)c1ccc3sc4ccccc4c3c1)OCCO2)c1cc(C(=N)N)cs1` [Compound 254, (S)—N—((R)-1-(4-carbamimidoylthiophen-2-yl)ethyl)-7-((dibenzo[b,d]thiophene-2-carbonyl)glycyl)-1,4-dioxa-7-azaspiro[4.4]nonane-8-carboxamide] stands less than 100 nM.
Turning to `N=C(N)c1csc(CNC(=O)[C@@H]2CC3(CN2C(=O)CN2CCc4cc(-c5ccc(F)cc5)ccc4C2=O)OCCO3)c1` [Compound 255, (S)—N-((4-carbamimidoylthiophen-2-yl)methyl)-7-(2-(6-(4-fluorophenyl)-1-oxo-3,4-dihydroisoquinolin-2(1H)-yl)acetyl)-1,4-dioxa-7-azaspiro[4.4]nonane-8-carboxamide], the IC50 was greater than 1000 nM.
Under `N=C(N)c1csc(CNC(=O)[C@@H]2CC3(CN2C(=O)CN2CCc4cc(-c5ccccc5)ccc4C2=O)OCCO3)c1` [Compound 256, (S)—N-((4-carbamimidoylthiophen-2-yl)methyl)-7-(2-(1-oxo-6-phenyl-3,4-dihydroisoquinolin-2(1H)-yl)acetyl)-1,4-dioxa-7-azaspiro[4.4]nonane-8-carboxamide] stands less than 100 nM; under `Cc1ccc(-c2ccc(C(=O)NCC(=O)N3CC4(C[C@H]3C(=O)NCc3cc(C(=N)N)cs3)OCCO4)cc2)c(C)c1` [Compound 257, (S)—N-((4-carbamimidoylthiophen-2-yl)methyl)-7-((2′,4′-dimethyl-[1,1′-biphenyl]-4-carbonyl)glycyl)-1,4-dioxa-7-azaspiro[4.4]nonane-8-carboxamide], less than 100 nM.
Under `CCCCCCOC(=O)/N=C(/N)c1csc([C@@H](C)NC(=O)[C@@H]2C[C@@H](OC(F)F)CN2C(=O)CNC(=O)c2ccc3c(c2)-c2ccccc2C3(F)F)c1` [Compound 258, hexyl ((E)-amino(5-((R)-1-((2S,4R)-1-((9,9-difluoro-9H-fluorene-3-carbonyl)glycyl)-4-(difluoromethoxy)pyrrolidine-2-carboxamido)ethyl)thiophen-3-yl)methylene)carbamate] stands less than 100 nM.
Consider `C[C@@]12C[C@@H]1N(C(=O)CNC(=O)c1ccc3c(c1)-c1ccccc1C3(F)F)[C@H](C(=O)Nc1cc(C(=N)N)cs1)C2` [Compound 259, (1S,3S,5S)—N-(4-carbamimidoylthiophen-2-yl)-2-((9,9-difluoro-9H-fluorene-3-carbonyl)glycyl)-5-methyl-2-azabicyclo[3.1.0]hexane-3-carboxamide], for which the IC50 is greater than 1000 nM.
For `C[C@@H](NC(=O)[C@@H]1C[C@](F)(Cn2ccnn2)CN1C(=O)CNC(=O)c1ccc2c(c1)-c1ccccc1C2(F)F)c1cc(C(=N)N)cs1` [Compound 260, (2S,4R)-4-((1H-1,2,3-triazol-1-yl)methyl)-N—((R)-1-(4-carbamimidoylthiophen-2-yl)ethyl)-1-((9,9-difluoro-9H-fluorene-3-carbonyl)glycyl)-4-fluoropyrrolidine-2-carboxamide] the value was less than 100 nM; for `C[C@@H](NC(=O)[C@@H]1CC2(CN1C(=O)CNC(=O)c1ccc3c(c1)-c1ccccc1S3(=O)=O)OCCO2)c1cc(C(=N)N)cs1` [Compound 261, (S)—N—((R)-1-(4-carbamimidoylthiophen-2-yl)ethyl)-7-((5,5-dioxidodibenzo[b,d]thiophene-2-carbonyl)glycyl)-1,4-dioxa-7-azaspiro[4.4]nonane-8-carboxamide], less than 100 nM; for `C[C@@H](NC(=O)[C@@H]1C[C@@H](OC(F)F)CN1C(=O)CNC(=O)c1ccc2c(c1)C(F)(F)c1ccccc1-2)c1cc(C(=N)N)cs1` [Compound 262, (2S,4R)—N—((R)-1-(4-carbamimidoylthiophen-2-yl)ethyl)-1-((9,9-difluoro-9H-fluorene-2-carbonyl)glycyl)-4-(difluoromethoxy)pyrrolidine-2-carboxamide], less than 100 nM.
Under `C[C@@H](NC(=O)[C@@H]1C[C@](F)(CF)CN1C(=O)CNC(=O)c1ccc2c(c1)C(F)(F)c1ccccc1-2)c1cc(C(=N)N)cs1` [Compound 263, (2S,4R)—N—((R)-1-(4-carbamimidoylthiophen-2-yl)ethyl)-1-((9,9-difluoro-9H-fluorene-2-carbonyl)glycyl)-4-fluoro-4-(fluoromethyl)pyrrolidine-2-carboxamide] stands less than 100 nM.
For `COC[C@@]1(F)C[C@@H](C(=O)N[C@H](C)c2cc(C(=N)N)cs2)N(C(=O)CNC(=O)c2ccc3c(c2)C(F)(F)c2ccccc2-3)C1` [Compound 264, (2S,4R)—N—((R)-1-(4-carbamimidoylthiophen-2-yl)ethyl)-1-((9,9-difluoro-9H-fluorene-2-carbonyl)glycyl)-4-fluoro-4-(methoxymethyl)pyrrolidine-2-carboxamide] the value was less than 100 nM.
With `C[C@@H](NC(=O)[C@@H]1C[C@@H](S(C)(=O)=O)CN1C(=O)CNC(=O)c1ccc2c(c1)C(F)(F)c1ccccc1-2)c1cc(C(=N)N)cs1` [Compound 265, (2S,4R)—N—((R)-1-(4-carbamimidoylthiophen-2-yl)ethyl)-1-((9,9-difluoro-9H-fluorene-2-carbonyl)glycyl)-4-(methylsulfonyl)pyrrolidine-2-carboxamide], the IC50 is less than 100 nM.
For `N=C(N)c1csc(CNC(=O)[C@@H]2CC3(CN2C(=O)CNC(=O)c2ccc(-c4ccncc4F)cc2)OCCO3)c1` [Compound 266, (S)—N-((4-carbamimidoylthiophen-2-yl)methyl)-7-((4-(3-fluoropyridin-4-yl)benzoyl)glycyl)-1,4-dioxa-7-azaspiro[4.4]nonane-8-carboxamide] the value was less than 100 nM.
Under `C[C@@H](NC(=O)[C@@H]1C[C@]2(CN3CCOCC3)C[C@@H]2N1C(=O)CNC(=O)c1ccc2c(c1)-c1ccccc1C2(F)F)c1cc(C(=N)N)cs1` [Compound 267, (1S,3S,5S)—N—((R)-1-(4-carbamimidoylthiophen-2-yl)ethyl)-2-((9,9-difluoro-9H-fluorene-3-carbonyl)glycyl)-5-(morpholinomethyl)-2-azabicyclo [3.1.0]hexane-3-carboxamide] stands less than 100 nM.
Regarding `C[C@@H](NC(=O)[C@@H]1C[C@@](C)(F)CN1C(=O)CNC(=O)c1ccc2c(c1)-c1ccccc1C2(F)F)c1cc(C(=N)N)cs1` [Compound 268, (2S,4R)—N—((R)-1-(4-carbamimidoylthiophen-2-yl)ethyl)-1-((9,9-difluoro-9H-fluorene-3-carbonyl)glycyl)-4-fluoro-4-methylpyrrolidine-2-carboxamide], the IC50 is less than 100 nM.
Under `CC(=O)NCCNC[C@@]1(F)C[C@@H](C(=O)N[C@H](C)c2cc(C(=N)N)cs2)N(C(=O)CNC(=O)c2ccc3c(c2)-c2ccccc2C3(F)F)C1` [Compound 269, (2S,4S)-4-(((2-acetamidoethyl)amino)methyl)-N—((R)-1-(4-carbamimidoylthiophen-2-yl)ethyl)-1-((9,9-difluoro-9H-fluorene-3-carbonyl)glycyl)-4-fluoropyrrolidine-2-carboxamide] stands less than 100 nM; under `C[C@@H](NC(=O)[C@@H]1CC(=C(F)F)CN1C(=O)CNC(=O)c1ccc2c(c1)-c1ccccc1C2(F)F)c1cc(C(=N)N)cs1` [Compound 270, (S)—N—((R)-1-(4-carbamimidoylthiophen-2-yl)ethyl)-1-((9,9-difluoro-9H-fluorene-3-carbonyl)glycyl)-4-(difluoromethylene)pyrrolidine-2-carboxamide], less than 100 nM.
`C[C@@H](NC(=O)[C@@H]1CC2(CN1C(=O)CNC(=O)c1ccc3c(c1)Oc1ccccc1S3)OCCO2)c1cc(C(=N)N)cs1` [Compound 271, (S)—N—((R)-1-(4-carbamimidoylthiophen-2-yl)ethyl)-7-((phenoxathiine-3-carbonyl)glycyl)-1,4-dioxa-7-azaspiro[4.4]nonane-8-carboxamide]: the IC50 is less than 100 nM.
